Source: ChEMBL document CHEMBL4145634, “Discovery of Janus Kinase 2 (JAK2) and Histone Deacetylase (HDAC) Dual Inhibitors as a Novel Strategy for the Combinational Treatment of Leukemia and Invasive Fungal Infections” (J Med Chem, 2018)
Converted amounts (≈) assume the structure as drawn. The source made the active and inactive calls. No cut-off for these calls is given here.

Legend:
[1] = target: Tyrosine-protein kinase JAK2 (Homo sapiens, UniProt O60674); experiment: Inhibition of JAK2 (unknown origin) using FAM-labeled peptide as substrate preincubated for 10 mins followed by substrate addition and measured after 25 mins in presence of ATP
Chain of Tyrosine-protein kinase JAK2 (O60674 whole entry): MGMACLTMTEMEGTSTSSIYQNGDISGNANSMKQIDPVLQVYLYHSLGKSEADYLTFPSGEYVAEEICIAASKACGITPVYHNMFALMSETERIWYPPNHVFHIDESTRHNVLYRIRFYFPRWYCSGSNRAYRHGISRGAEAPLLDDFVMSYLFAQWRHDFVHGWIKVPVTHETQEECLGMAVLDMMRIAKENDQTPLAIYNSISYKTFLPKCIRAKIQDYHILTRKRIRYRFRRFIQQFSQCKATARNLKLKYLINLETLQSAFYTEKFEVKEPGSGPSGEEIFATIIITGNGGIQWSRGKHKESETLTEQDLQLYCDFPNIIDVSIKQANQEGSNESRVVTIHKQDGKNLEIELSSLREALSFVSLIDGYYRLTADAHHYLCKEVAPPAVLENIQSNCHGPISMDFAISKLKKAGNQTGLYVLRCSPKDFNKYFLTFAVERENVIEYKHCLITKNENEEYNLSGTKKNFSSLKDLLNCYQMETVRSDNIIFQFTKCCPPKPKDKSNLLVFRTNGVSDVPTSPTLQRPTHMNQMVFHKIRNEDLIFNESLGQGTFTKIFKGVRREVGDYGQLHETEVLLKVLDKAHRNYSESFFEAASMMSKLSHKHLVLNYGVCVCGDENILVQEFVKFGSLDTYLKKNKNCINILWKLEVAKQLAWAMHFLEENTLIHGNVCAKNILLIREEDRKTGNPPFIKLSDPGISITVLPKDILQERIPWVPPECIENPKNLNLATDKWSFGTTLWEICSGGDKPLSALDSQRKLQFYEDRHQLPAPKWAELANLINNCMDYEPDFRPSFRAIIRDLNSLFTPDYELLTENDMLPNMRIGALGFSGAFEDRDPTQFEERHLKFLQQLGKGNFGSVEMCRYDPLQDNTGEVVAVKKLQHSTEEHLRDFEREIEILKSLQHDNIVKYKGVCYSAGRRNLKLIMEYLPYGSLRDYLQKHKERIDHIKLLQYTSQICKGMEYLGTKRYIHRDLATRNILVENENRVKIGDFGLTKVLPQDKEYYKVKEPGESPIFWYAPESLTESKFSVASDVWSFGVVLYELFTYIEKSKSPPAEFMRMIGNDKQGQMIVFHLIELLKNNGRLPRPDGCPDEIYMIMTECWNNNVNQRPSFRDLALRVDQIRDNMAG

Histone deacetylase 1 = Histone deacetylase 1 (Homo sapiens, UniProt Q13547); experiment: Inhibition of full length human recombinant HDAC1 expressed in baculovirus expression system using (Ac-Leu-Gly-Lys(Ac)-AMC as substrate preincubated for 5 mins followed by substrate addition and measured after 30 mins by fluorescence assay
Chain of Histone deacetylase 1 (Q13547 whole entry): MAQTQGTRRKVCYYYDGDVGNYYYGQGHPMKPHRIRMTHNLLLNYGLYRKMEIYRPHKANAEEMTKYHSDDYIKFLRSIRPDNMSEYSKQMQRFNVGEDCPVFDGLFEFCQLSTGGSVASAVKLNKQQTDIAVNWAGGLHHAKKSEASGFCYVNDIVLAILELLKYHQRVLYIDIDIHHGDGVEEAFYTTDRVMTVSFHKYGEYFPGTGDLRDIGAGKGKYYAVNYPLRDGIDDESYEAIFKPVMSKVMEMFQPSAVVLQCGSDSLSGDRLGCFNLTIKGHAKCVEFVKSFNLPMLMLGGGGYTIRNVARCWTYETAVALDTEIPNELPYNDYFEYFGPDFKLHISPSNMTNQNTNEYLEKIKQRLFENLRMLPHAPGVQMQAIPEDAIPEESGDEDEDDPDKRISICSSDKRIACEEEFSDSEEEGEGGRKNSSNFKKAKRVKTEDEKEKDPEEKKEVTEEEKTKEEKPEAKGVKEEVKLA

HL-60 [2] = experiment: Antiproliferative activity against human HL60 cells after 48 hrs by CCK-8 assay; format: functional, cell-based; conditions: HL-60, 48 h
K562 [3] = experiment: Antiproliferative activity against human K562 cells after 48 hrs by CCK-8 assay; format: functional, cell-based; conditions: K562, 48 h
HEL [4] = experiment: Antiproliferative activity against human HEL cells after 48 hrs by CCK-8 assay; format: functional, cell-based
Candida albicans [5] = experiment: microbe, parasite or virus in culture; format: functional; conditions: Candida albicans, 0304103, 48 h
Description: Antifungal activity against FLC resistant Candida albicans 0304103 after 48 hrs by checkerboard microdilution method

Candida albicans [6] = experiment: microbe, parasite or virus in culture; format: functional; conditions: Candida albicans, 0304103, 48 h; remark: listed apart in the source
Description: Antifungal activity against FLC resistant Candida albicans 0304103 assessed as fluconazol MIC50 after 48 hrs by checkerboard microdilution method

Candida albicans [7] = experiment: microbe, parasite or virus in culture; format: functional; conditions: Candida albicans, 0304103, 48 h; remark: listed apart in the source
Description: Antifungal activity against FLC resistant Candida albicans 0304103 after 48 hrs in presence of fluconazol by checkerboard microdilution method

Candida albicans [8] = experiment: Antifungal activity against FLC resistant Candida albicans 100 after 48 hrs by checkerboard microdilution method; format: functional; conditions: Candida albicans, 100, 48 h
Candida albicans [9] = experiment: microbe, parasite or virus in culture; format: functional; conditions: Candida albicans, 100, 48 h
Description: Antifungal activity against FLC resistant Candida albicans 100 assessed as fluconazol MIC50 after 48 hrs by checkerboard microdilution method

Candida albicans [10] = experiment: Antifungal activity against FLC resistant Candida albicans 100 after 48 hrs in presence of fluconazol by checkerboard microdilution method; format: functional; conditions: Candida albicans, 100, 48 h
Candida albicans [11] = experiment: microbe, parasite or virus in culture; format: functional; conditions: Candida albicans, 0710922, 48 h
Description: Antifungal activity against FLC resistant Candida albicans 0710922 after 48 hrs by checkerboard microdilution method

Candida albicans [12] = experiment: microbe, parasite or virus in culture; format: functional; conditions: Candida albicans, 0710922, 48 h; remark: listed apart in the source
Description: Antifungal activity against FLC resistant Candida albicans 0710922 assessed as fluconazol MIC50 after 48 hrs by checkerboard microdilution method

Candida albicans [13] = experiment: microbe, parasite or virus in culture; format: functional; conditions: Candida albicans, 0710922, 48 h; remark: listed apart in the source
Description: Antifungal activity against FLC resistant Candida albicans 0710922 after 48 hrs in presence of fluconazol by checkerboard microdilution method

Candida albicans [14] = experiment: Synergistic antifungal activity against FLC resistant Candida albicans 0304103 assessed as FIC index after 48 hrs by checkerboard microdilution method; format: functional
Candida albicans [15] = experiment: Synergistic antifungal activity against FLC resistant Candida albicans 100 assessed as FIC index after 48 hrs by checkerboard microdilution method; format: functional
Candida albicans [16] = experiment: Synergistic antifungal activity against FLC resistant Candida albicans 0710922 assessed as FIC index after 48 hrs by checkerboard microdilution method; format: functional
HL-60 [17] = experiment: Antiproliferative activity against human HL60 cells after 48 hrs in presence of JAK2 inhibitor CYT-387 by CCK-8 assay; format: functional, cell-based; conditions: HL-60, 48 h
K562 [18] = experiment: Antiproliferative activity against human K562 cells after 48 hrs in presence of JAK2 inhibitor CYT-387 by CCK-8 assay; format: functional, cell-based; conditions: K562, 48 h
HEL [19] = experiment: Antiproliferative activity against human HEL cells after 48 hrs in presence of JAK2 inhibitor CYT-387 by CCK-8 assay; format: functional, cell-based
HEL [20] = experiment: Antitumor activity against human HEL cells xenografted in BALB/C nude mouse assessed as tumor growth inhibition at 10 mg/kg, ip bid treated for 21 consecutive days relative to control; format: functional; conditions: read-out: TGI
Mus musculus [21] = experiment: Protection against spleen enlargement in SCID mouse xenografted with human HEL cells at 10 mg/kg, ip qd; format: functional, organism-based
HEL [22] = experiment: Antitumor activity in human HEL cells xenografted in SCID mouse assessed as mouse survival time at 10 mg/kg, ip qd; format: functional
Mus musculus [23] = experiment: In vivo antifungal activity against FLC resistant Candida albicans 0304103 infected in ICR mouse assessed as mouse survival at 5 mg/kg, ip qd up to 20 days in co-treated with 1 mg/kg, ip qd fluconazol (reference value: 4.5 day); format: functional
Mus musculus [24] = experiment: In vivo antifungal activity against FLC resistant Candida albicans 0304103 infected in ICR mouse assessed as mouse survival at 5 mg/kg, ip qd up to 20 days (reference value: 4.5 day); format: functional, organism-based

SMILES	IC50 [1] [nM]	IC50 (Histone deacetylase 1) [nM]	IC50 (HL-60 [2]) [µM]	IC50 (K562 [3]) [µM]	IC50 (HEL [4]) [µM]	MIC50 (Candida albicans [5]) [µg/mL]	MIC50 (Candida albicans [6]) [µg/mL]	MIC50 (Candida albicans [7]) [µg/mL]	MIC50 (Candida albicans [8]) [µg/mL]	MIC50 (Candida albicans [9]) [µg/mL]	MIC50 (Candida albicans [10]) [µg/mL]	MIC50 (Candida albicans [11]) [µg/mL]	MIC50 (Candida albicans [12]) [µg/mL]	MIC50 (Candida albicans [13]) [µg/mL]	fractional inhibitory concentration index (FICI) (Candida albicans [14])	fractional inhibitory concentration index (FICI) (Candida albicans [15])	fractional inhibitory concentration index (FICI) (Candida albicans [16])	further results
CS(=O)(=O)Nc1ccc(-c2ccnc(Nc3ccc(N4CCC(C(=O)NCCCCC(=O)NO)CC4)cc3)n2)cc1	1	2200	> 50	11	8.1	32 (≈ 55 µM)	0.5 (≈ 0.86 µM)	16 (≈ 27.5 µM)	> 64	0.5 (≈ 0.86 µM)	16	> 64	0.5 (≈ 0.86 µM)	32 (≈ 55 µM)	0.5	0.26	0.51	
N#CCNC(=O)c1ccc(-c2ccnc(Nc3ccc(N4CCC(C(=O)NO)CC4)cc3)n2)cc1	4	2700	> 50	> 50	> 50	> 64	0.25 (≈ 0.53 µM)	8 (≈ 17 µM)	> 64	0.5 (≈ 1.06 µM)	2	> 64	1 (≈ 2.12 µM)	64 (≈ 136 µM)	0.13	0.039	1.02	
CS(=O)(=O)Nc1ccc(-c2ccnc(Nc3ccc(N4CCC(C(=O)NCc5ccc(C(=O)NO)cc5)CC4)cc3)n2)cc1	18	1100	> 50	10	6.3	> 64	2 (≈ 3.25 µM)	8 (≈ 13 µM)	> 64	1 (≈ 1.62 µM)	4	> 64	0.5 (≈ 0.812 µM)	64 (≈ 104 µM)	0.15	0.078	1.01	
Nc1ccccc1NC(=O)c1ccc(-c2ccnc(Nc3ccc(N4CCOCC4)cc3)n2)cc1	110	> 50000	> 50	> 50	> 50	> 64	> 64	> 64	> 64	0.5 (≈ 1.07 µM)	64	> 64	> 64	> 64	>2	1.01	>2	
Nc1cc(F)ccc1NC(=O)/C=C/c1cnn(C/C=C/c2ccccc2)c1			21.7 to 33.6	21.7 to 33.6	21.7 to 33.6	> 64			> 64			> 64						IC50 (HL-60 [17]): 1640 to 4190 nM; IC50 (K562 [18]): 1640 to 4190 nM; IC50 (HEL [19]): 1640 to 4190 nM; inhibition in vivo at 10 mg/kg (HEL [20]): 16.4%; Activity (Mus musculus [21]): inactive; Activity (HEL [22]): inactive; MST (Mus musculus [23]): 5 days; Activity (Mus musculus [24]): inactive
N#CCNC(=O)c1ccc(-c2ccnc(Nc3ccc(N4CCC(C(=O)Nc5ccc(/C=C/C(=O)NO)cc5)CC4)cc3)n2)cc1	15	5100	> 50	> 50	> 50	> 64	1 (≈ 1.62 µM)	4 (≈ 6.49 µM)	> 64	1 (≈ 1.62 µM)	64	> 64	2 (≈ 3.24 µM)	16 (≈ 25.9 µM)	0.078	1.02	0.31	
CS(=O)(=O)Nc1ccc(-c2ccnc(Nc3ccc(N4CCC(C(=O)NCCCC(=O)NO)CC4)cc3)n2)cc1	1	9200	> 50	12	12	32 (≈ 56.4 µM)	4 (≈ 7.05 µM)	8 (≈ 14.1 µM)	> 64	1 (≈ 1.76 µM)	8	> 64	0.5 (≈ 0.881 µM)	32 (≈ 56.4 µM)	0.31	0.14	0.51	
CS(=O)(=O)Nc1ccc(-c2ccnc(Nc3ccc(N4CCC(C(=O)Nc5ccc(C(=O)NO)cc5)CC4)cc3)n2)cc1	2	380	11	8.6	2	> 64	> 64	> 64	> 64	16 (≈ 26.6 µM)	64	> 64	> 64	> 64	>2	1.25	>2	
CS(=O)(=O)Nc1ccc(-c2ccnc(Nc3ccc(N4CCC(C(=O)NCCCCCC(=O)NO)CC4)cc3)n2)cc1	3	350	37	10	17	32 (≈ 53.7 µM)	0.5 (≈ 0.839 µM)	16 (≈ 26.9 µM)	32	0.25 (≈ 0.42 µM)	16	> 64	64 (≈ 107 µM)	64 (≈ 107 µM)	0.5	0.5	2	
CS(=O)(=O)Nc1ccc(-c2ccnc(Nc3ccc(N4CCC(C(=O)Nc5ccccc5N)CC4)cc3)n2)cc1	2	2100	16	9.5	3.2	> 64	> 64	> 64	> 64	64 (≈ 115 µM)	64	> 64	> 64	> 64	>2	2	>2	
N#CCNC(=O)c1ccc(-c2ccnc(Nc3ccc(N4CCC(C(=O)Nc5ccc(C(=O)NO)cc5)CC4)cc3)n2)cc1	16	24000	> 50	> 50	> 50	> 64	0.5 (≈ 0.847 µM)	64 (≈ 108 µM)	> 64	2 (≈ 3.39 µM)	64	> 64	> 64	> 64	1.01	1.03	>2	
CS(=O)(=O)Nc1ccc(-c2ccnc(Nc3ccc(N4CCC(C(=O)NO)CC4)cc3)n2)cc1	1	2900	> 50	18	> 50	> 64	0.5 (≈ 1.04 µM)	4 (≈ 8.29 µM)	> 64	1 (≈ 2.07 µM)	8	> 64	0.25 (≈ 0.518 µM)	32 (≈ 66.3 µM)	0.07	0.14	0.51	
N#CCNC(=O)c1ccc(-c2ccnc(Nc3ccc(N4CCC(C(=O)Nc5ccccc5N)CC4)cc3)n2)cc1	8	1700	> 50	> 50	6.6	> 64	> 64	> 64	> 64	> 64	> 64	> 64	64 (≈ 117 µM)	64 (≈ 117 µM)	>2	>2	2	
CS(=O)(=O)Nc1ccc(-c2ccnc(Nc3ccc(N4CCC(C(=O)NCCCCCCC(=O)NO)CC4)cc3)n2)cc1	2	250	12	8.9	3.9	> 64	0.5 (≈ 0.82 µM)	8 (≈ 13.1 µM)	> 64	0.25 (≈ 0.41 µM)	8	> 64	0.25 (≈ 0.41 µM)	32 (≈ 52.5 µM)	0.13	0.13	0.5	
